Measured values taken from US20170173002A1, “Compositions and Methods for Treating an Infection” (CMPD LICENSING, LLC, priority 2015, published 2017).

Columns and labels:
Bacteroides fragilis = assay: Expected efficacy of antibiotic agents; conditions: expected efficacy against Bacteroides fragilis
Clostridium difficile = assay: Expected efficacy of antibiotic agents; conditions: expected efficacy against Clostridium difficile
Chlamydia pneumoniae = assay: Expected efficacy of antibiotic agents; conditions: expected efficacy against Chlamydia pneumoniae
Chlamydia psittaci = conditions: expected efficacy against Chlamydia psittaci
Chlamydia trachomatis = assay: Expected efficacy of antibiotic agents; conditions: expected efficacy against Chlamydia trachomatis
Mycoplasma pneumoniae = assay: Expected efficacy of antibiotic agents; conditions: expected efficacy against Mycoplasma pneumoniae
Bordetella pertussis = assay: Expected efficacy of antibiotic agents; conditions: expected efficacy against Bordetella pertussis
Brucella species = conditions: expected efficacy against Brucella species
Enterobacter aerogenes = assay: Expected efficacy of antibiotic agents; conditions: expected efficacy against Enterobacter aerogenes
Enterobacter cloacae = assay: Expected efficacy of antibiotic agents; conditions: expected efficacy against Enterobacter cloacae
Enterobacter sakazakii = assay: Expected efficacy of antibiotic agents; conditions: expected efficacy against Enterobacter sakazakii
Escherichia coli = assay: Expected efficacy of antibiotic agents; conditions: expected efficacy against Escherichia coli
[1] = system: Haemophilus parainfluenzae; assay: Expected efficacy of antibiotic agents; conditions: expected efficacy against Haemophilus parainfluenzae
[2] = system: Klebsiella (Calymmatobacterium) granulomatis; assay: Expected efficacy of antibiotic agents; conditions: expected efficacy against Klebsiella (Calymmatobacterium) granulomatis
Klebsiella oxytoca = assay: Expected efficacy of antibiotic agents; conditions: expected efficacy against Klebsiella oxytoca
Klebsiella pneumoniae = assay: Expected efficacy of antibiotic agents; conditions: expected efficacy against Klebsiella pneumoniae
Legionella pneumophila = conditions: expected efficacy against Legionella pneumophila
Moraxella catarrhalis = assay: Expected efficacy of antibiotic agents; conditions: expected efficacy against Moraxella catarrhalis
Neisseria gonorrhoeae = assay: Expected efficacy of antibiotic agents; conditions: expected efficacy against Neisseria gonorrhoeae
Neisseria meningitidis = assay: Expected efficacy of antibiotic agents; conditions: expected efficacy against Neisseria meningitidis
Proteus mirabilis = assay: Expected efficacy of antibiotic agents; conditions: expected efficacy against Proteus mirabilis
Proteus vulgaris = assay: Expected efficacy of antibiotic agents; conditions: expected efficacy against Proteus vulgaris
Providencia rettgeri = assay: Expected efficacy of antibiotic agents; conditions: expected efficacy against Providencia rettgeri
Providencia stuartii = assay: Expected efficacy of antibiotic agents; conditions: expected efficacy against Providencia stuartii
Pseudomonas aeruginosa = assay: Expected efficacy of antibiotic agents; conditions: expected efficacy against Pseudomonas aeruginosa
Pseudomonas fluorescens = assay: Expected efficacy of antibiotic agents; conditions: expected efficacy against Pseudomonas fluorescens
Serratia marcescens = assay: Expected efficacy of antibiotic agents; conditions: expected efficacy against Serratia marcescens
Vibrio cholerae = assay: Expected efficacy of antibiotic agents; conditions: expected efficacy against Vibrio cholerae
Corynebacterium jeikeium = assay: Expected efficacy of antibiotic agents; conditions: expected efficacy against Corynebacterium jeikeium
[3] = system: Corynebacterium urealyticum; assay: Expected efficacy of antibiotic agents; conditions: expected efficacy against Corynebacterium urealyticum
Diphtheroids = assay: Expected efficacy of antibiotic agents; conditions: expected efficacy against Diphtheroids
Enterococcus faecalis = assay: Expected efficacy of antibiotic agents; conditions: expected efficacy against Enterococcus faecalis
Enterococcus faecium = assay: Expected efficacy of antibiotic agents; conditions: expected efficacy against Enterococcus faecium
[4] = system: Methicillin resistant staph aureus (MRSA); assay: Expected efficacy of antibiotic agents; conditions: expected efficacy against Methicillin resistant staph aureus (MRSA)
Peptostreptococcus = assay: Expected efficacy of antibiotic agents; conditions: expected efficacy against Peptostreptococcus
[5] = system: Staphylococcus aureus (MSSA); assay: Expected efficacy of antibiotic agents; conditions: expected efficacy against Staphylococcus aureus (MSSA)
[6] = system: Staphylococcus epidermidis; assay: Expected efficacy of antibiotic agents; conditions: expected efficacy against Staphylococcus epidermidis
Streptococcus agalactiae = assay: Expected efficacy of antibiotic agents; conditions: expected efficacy against Streptococcus agalactiae
Streptococcus pneumoniae = assay: Expected efficacy of antibiotic agents; conditions: expected efficacy against Streptococcus pneumoniae
Streptococcus pyogenes = assay: Expected efficacy of antibiotic agents; conditions: expected efficacy against Streptococcus pyogenes
[7] = system: Viridans group streptococci; assay: Expected efficacy of antibiotic agents; conditions: expected efficacy against Viridans group streptococci
Clostridium perfringens = conditions: expected efficacy against Clostridium perfringens
Acinetobacter baumannii = assay: Expected efficacy of antibiotic agents; conditions: expected efficacy against Acinetobacter baumannii
[8] = system: Acinetobacter calcoaceticus; assay: Expected efficacy of antibiotic agents; conditions: expected efficacy against Acinetobacter calcoaceticus
Acinetobacter lwoffii = assay: Expected efficacy of antibiotic agents; conditions: expected efficacy against Acinetobacter lwoffii
Campylobacter jejuni = assay: Expected efficacy of antibiotic agents; conditions: expected efficacy against Campylobacter jejuni
Citrobacter diversus = assay: Expected efficacy of antibiotic agents; conditions: expected efficacy against Citrobacter diversus
Citrobacter freundii = assay: Expected efficacy of antibiotic agents; conditions: expected efficacy against Citrobacter freundii
Francisella tularensis = conditions: expected efficacy against Francisella tularensis
Haemophilus ducreyi = assay: Expected efficacy of antibiotic agents; conditions: expected efficacy against Haemophilus ducreyi
Haemophilus influenzae = assay: Expected efficacy of antibiotic agents; conditions: expected efficacy against Haemophilus influenzae
Morganella morganii = assay: Expected efficacy of antibiotic agents; conditions: expected efficacy against Morganella morganii
Rickettsiae = conditions: expected efficacy against Rickettsiae
Salmonella typhi = assay: Expected efficacy of antibiotic agents; conditions: expected efficacy against Salmonella typhi
Shigella boydii = assay: Expected efficacy of antibiotic agents; conditions: expected efficacy against Shigella boydii
Shigella dysenteriae = assay: Expected efficacy of antibiotic agents; conditions: expected efficacy against Shigella dysenteriae
Shigella flexneri = assay: Expected efficacy of antibiotic agents; conditions: expected efficacy against Shigella flexneri
Shigella sonnei = assay: Expected efficacy of antibiotic agents; conditions: expected efficacy against Shigella sonnei
Yersinia pestis = conditions: expected efficacy against Yersinia pestis

## Colistimethate
Bacteroides fragilis
  Efficacy: no
Clostridium difficile
  Efficacy: no
Chlamydia pneumoniae
  Efficacy: no
Chlamydia psittaci
  Efficacy: no
Chlamydia trachomatis
  Efficacy: no
Mycoplasma pneumoniae
  Efficacy: no
Bordetella pertussis
  Efficacy: no
Brucella species
  Efficacy: no
Enterobacter aerogenes
  Efficacy: yes
Enterobacter cloacae
  Efficacy: yes
Enterobacter sakazakii
  Efficacy: yes
Escherichia coli
  Efficacy: yes
[1]
  Efficacy: no
[2]
  Efficacy: yes
Klebsiella oxytoca
  Efficacy: yes
Klebsiella pneumoniae
  Efficacy: yes
Legionella pneumophila
  Efficacy: no
Moraxella catarrhalis
  Efficacy: no
Neisseria gonorrhoeae
  Efficacy: no
Neisseria meningitidis
  Efficacy: no
Proteus mirabilis
  Efficacy: no
Proteus vulgaris
  Efficacy: no
Providencia rettgeri
  Efficacy: no
Providencia stuartii
  Efficacy: no
Pseudomonas aeruginosa
  Efficacy: yes
Pseudomonas fluorescens
  Efficacy: yes
Serratia marcescens
  Efficacy: no
Vibrio cholerae
  Efficacy: no
Corynebacterium jeikeium
  Efficacy: no
[3]
  Efficacy: no
Diphtheroids
  Efficacy: no
Enterococcus faecalis
  Efficacy: no
Enterococcus faecium
  Efficacy: no
[4]
  Efficacy: no
Peptostreptococcus
  Efficacy: no
[5]
  Efficacy: no
[6]
  Efficacy: no
Streptococcus agalactiae
  Efficacy: no
Streptococcus pneumoniae
  Efficacy: no
Streptococcus pyogenes
  Efficacy: no
[7]
  Efficacy: no

## CO/N=C(\C(=O)N[C@@H]1C(=O)N2C(C(=O)O)=C(CSc3nc(=O)c(=O)[nH]n3C)CS[C@H]12)c1csc(N)n1 [Ceftriaxone, ceftriaxone]
Bacteroides fragilis
  Efficacy: yes
Clostridium difficile
  Efficacy: no
Clostridium perfringens
  Efficacy: yes
Chlamydia pneumoniae
  Efficacy: no
Chlamydia psittaci
  Efficacy: no
Chlamydia trachomatis
  Efficacy: no
Mycoplasma pneumoniae
  Efficacy: no
Acinetobacter baumannii
  Efficacy: no
[8]
  Efficacy: no
Acinetobacter lwoffii
  Efficacy: no
Bordetella pertussis
  Efficacy: no
Campylobacter jejuni
  Efficacy: no
Citrobacter diversus
  Efficacy: yes
Citrobacter freundii
  Efficacy: yes
Enterobacter aerogenes
  Efficacy: yes
Enterobacter cloacae
  Efficacy: yes
Enterobacter sakazakii
  Efficacy: yes
Escherichia coli
  Efficacy: yes
Francisella tularensis
  Efficacy: no
Haemophilus ducreyi
  Efficacy: yes
Haemophilus influenzae
  Efficacy: yes
[1]
  Efficacy: yes
[2]
  Efficacy: yes
Klebsiella oxytoca
  Efficacy: yes
Klebsiella pneumoniae
  Efficacy: yes
Legionella pneumophila
  Efficacy: no
Moraxella catarrhalis
  Efficacy: yes
Morganella morganii
  Efficacy: yes
Neisseria gonorrhoeae
  Efficacy: yes
Neisseria meningitidis
  Efficacy: yes
Proteus mirabilis
  Efficacy: yes
Proteus vulgaris
  Efficacy: yes
Providencia rettgeri
  Efficacy: yes
Providencia stuartii
  Efficacy: yes
Pseudomonas aeruginosa
  Efficacy: no
Rickettsiae
  Efficacy: no
Salmonella typhi
  Efficacy: yes
Serratia marcescens
  Efficacy: yes
Shigella boydii
  Efficacy: yes
Shigella dysenteriae
  Efficacy: yes
Shigella flexneri
  Efficacy: yes
Shigella sonnei
  Efficacy: yes
Vibrio cholerae
  Efficacy: no
Yersinia pestis
  Efficacy: no
Corynebacterium jeikeium
  Efficacy: no
[3]
  Efficacy: no
Diphtheroids
  Efficacy: no
Enterococcus faecalis
  Efficacy: no
Enterococcus faecium
  Efficacy: no
[4]
  Efficacy: no
Peptostreptococcus
  Efficacy: yes
[5]
  Efficacy: yes
[6]
  Efficacy: yes
Streptococcus agalactiae
  Efficacy: yes
Streptococcus pneumoniae
  Efficacy: yes
Streptococcus pyogenes
  Efficacy: yes
[7]
  Efficacy: yes

## NC[C@H]1O[C@H](O[C@H]2[C@H](O)[C@@H](O[C@H]3O[C@H](CO)[C@@H](O)[C@H](N)[C@H]3O)[C@H](N)C[C@@H]2N)[C@H](N)C[C@@H]1O [Tobramycin, tobramycin]
Bacteroides fragilis
  Efficacy: no
Clostridium difficile
  Efficacy: no
Clostridium perfringens
  Efficacy: no
Chlamydia pneumoniae
  Efficacy: no
Chlamydia psittaci
  Efficacy: no
Chlamydia trachomatis
  Efficacy: no
Mycoplasma pneumoniae
  Efficacy: no
Acinetobacter baumannii
  Efficacy: no
[8]
  Efficacy: no
Acinetobacter lwoffii
  Efficacy: no
Bordetella pertussis
  Efficacy: no
Campylobacter jejuni
  Efficacy: yes
Citrobacter diversus
  Efficacy: yes
Citrobacter freundii
  Efficacy: yes
Enterobacter aerogenes
  Efficacy: yes
Enterobacter cloacae
  Efficacy: yes
Enterobacter sakazakii
  Efficacy: yes
Escherichia coli
  Efficacy: yes
Haemophilus ducreyi
  Efficacy: yes
Haemophilus influenzae
  Efficacy: yes
[2]
  Efficacy: yes
Klebsiella oxytoca
  Efficacy: yes
Klebsiella pneumoniae
  Efficacy: yes
Legionella pneumophila
  Efficacy: no
Moraxella catarrhalis
  Efficacy: yes
Neisseria gonorrhoeae
  Efficacy: no
Neisseria meningitidis
  Efficacy: no
Proteus mirabilis
  Efficacy: yes
Proteus vulgaris
  Efficacy: yes
Pseudomonas aeruginosa
  Efficacy: yes
Pseudomonas fluorescens
  Efficacy: yes
Serratia marcescens
  Efficacy: yes
Shigella boydii
  Efficacy: yes
Shigella dysenteriae
  Efficacy: yes
Shigella flexneri
  Efficacy: yes
Shigella sonnei
  Efficacy: yes
Vibrio cholerae
  Efficacy: no
Yersinia pestis
  Efficacy: yes
Corynebacterium jeikeium
  Efficacy: no
[3]
  Efficacy: no
Diphtheroids
  Efficacy: no
Enterococcus faecalis
  Efficacy: no
Enterococcus faecium
  Efficacy: no
[4]
  Efficacy: no
Peptostreptococcus
  Efficacy: no
[5]
  Efficacy: no
[6]
  Efficacy: no
Streptococcus agalactiae
  Efficacy: no
Streptococcus pneumoniae
  Efficacy: no
Streptococcus pyogenes
  Efficacy: no
[7]
  Efficacy: no
